Data published in the supplement of paper PMC4862054.

Experiments:
Test in all cases: normalised viability (% of control), CellTiter-Blue; higher = more viable cells (about 100 = DMSO control)
Conditions in all cases: incubation time: 72 h
[1] = test system: BT-474
Procedure, shortened: (§1)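 The reported figure is normalised viability at a single listed concentration of the series. Breast cancer cell lines (20 µl suspension) went onto 384-well plates holding compound in 5 µl medium for 72 h. CellTiter-Blue (2.5 µl, 2 h, 37 °C) was read by fluorescence at 560/590 nm, and each plate was scaled to vehicle at 100 and a positive kill control at 0.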

[2] = test system: CAL-120
Procedure, shortened: as §1

[3] = test system: CAL-148
Procedure, shortened: as §1

[4] = test system: CAL-51
Procedure, shortened: as §1

[5] = test system: CAL-85-1
Procedure, shortened: as §1

[6] = test system: DU-4475
Procedure, shortened: as §1

[7] = test system: HCC1143
Procedure, shortened: as §1

[8] = test system: HCC1599
Procedure, shortened: as §1

[9] = test system: HCC1937
Procedure, shortened: as §1

[10] = test system: HDQ-P1
Procedure, shortened: as §1

[11] = test system: Hs578T
Procedure, shortened: as §1

[12] = test system: MDA-MB-436
Procedure, shortened: as §1

[13] = test system: MDA-MB-453
Procedure, shortened: as §1

[14] = test system: MFM-223
Procedure, shortened: as §1

[15] = test system: SK-BR-3
Procedure, shortened: as §1

C[C@@]1(C(=O)Nc2ccc(F)nc2)CCCN1c1nc(Nc2cc(C3CC3)n[nH]2)c2cccn2n1
normalised viability [%]
Conditions | 3 nM | 10 nM | 30 nM | 100 nM | 1000 nM | 10000 nM
[1] | – | 109 | – | – | 87.6 | 82
[2] | – | 94 | – | – | 63 | 21.1
[3] | 88.5 | – | 99.1 | 95.1 | – | –
[4] | 99 | – | 97.4 | 84.9 | – | –
[5] | 92 | – | 75 | 87.9 | – | –
[6] | 97.3 | – | 91.7 | 83.8 | – | –
[7] | – | 105 | – | – | 64.1 | 45.6
[8] | – | 92.5 | – | – | 55 | 54.1
[9] | – | 127 | – | – | 73.2 | 29.4
[10] | 120 | – | 82 | 73.5 | – | –
[11] | – | 114 | – | – | 75.8 | 38.1
[12] | – | 122 | – | – | 94.3 | 33.9
[13] | 100 | – | 84 | 105 | – | –
[14] | – | 88.5 | – | – | 52.6 | 25.3
[15] | – | 99.1 | – | – | 71 | 56.4

COC1=C2C[C@@H](C)C[C@H](OC)[C@H](O)[C@@H](C)/C=C(\C)[C@H](OC(N)=O)[C@@H](OC)/C=C\C=C(/C)C(=O)NC(=CC1=O)C2=O [Geldanamycin]
normalised viability [%]
Conditions | 3 nM | 10 nM | 30 nM | 100 nM | 1000 nM | 10000 nM
[1] | – | 127 | – | – | 18.5 | 16.4
[2] | – | 91 | – | – | 13.6 | 6.18
[3] | 102 | – | 110 | 108 | – | –
[4] | 109 | – | 100 | 95.4 | – | –
[5] | 104 | – | 87.4 | 99.2 | – | –
[6] | 106 | – | 113 | 73.2 | – | –
[7] | – | 90.2 | – | – | 38.3 | 24.9
[8] | – | 113 | – | – | 31.3 | 20.1
[9] | – | 115 | – | – | 30.1 | 21.3
[10] | 124 | – | 104 | 44.8 | – | –
[11] | – | 122 | – | – | 31.1 | 17.2
[12] | – | 107 | – | – | 15.7 | 16.9
[13] | 121 | – | 97.3 | 51.3 | – | –
[14] | – | 103 | – | – | 17.7 | 8.14
[15] | – | 101 | – | – | 14.9 | 9.38

c1ccc(C2CN3CCSC3=N2)cc1 (stereo not given) [Tetramisole]
normalised viability [%]
Conditions | 3 nM | 10 nM | 30 nM | 100 nM | 1000 nM | 10000 nM
[1] | – | 111 | – | – | 137 | 107
[2] | – | 110 | – | – | 112 | 105
[3] | 103 | – | 103 | 125 | – | –
[4] | 85.4 | – | 92.1 | 89.6 | – | –
[5] | 104 | – | 92.8 | 99.4 | – | –
[6] | 91.1 | – | 99.9 | 101 | – | –
[7] | – | 105 | – | – | 118 | 109
[8] | – | 102 | – | – | 91.2 | 107
[9] | – | 117 | – | – | 105 | 103
[10] | 117 | – | 116 | 109 | – | –
[11] | – | 90.2 | – | – | 95.5 | 107
[12] | – | 110 | – | – | 111 | 113
[13] | 93.6 | – | 104 | 98.5 | – | –
[14] | – | 101 | – | – | 96.4 | 90.3
[15] | – | 107 | – | – | 101 | 105

CCS(=O)(=O)c1cccc(-c2cc(C(=O)NC3CCN(C)CC3)c(C)c3[nH]c4ncc(C)cc4c23)c1 [TAK-901]
normalised viability [%]
Conditions | 0.3 nM | 1 nM | 3 nM | 10 nM | 100 nM | 1000 nM
[1] | – | 131 | – | – | 107 | 78.6
[2] | – | 84.4 | – | – | 50.5 | 13.2
[3] | 90.1 | – | 95.3 | 101 | – | –
[4] | 98 | – | 92.8 | 92.1 | – | –
[5] | 89.9 | – | 86.3 | 91.2 | – | –
[6] | 94.7 | – | 88.1 | 101 | – | –
[7] | – | 87.3 | – | – | 64.2 | 27.1
[8] | – | 93.6 | – | – | 83 | 61.4
[9] | – | 116 | – | – | 80.7 | 35.2
[10] | 111 | – | 109 | 113 | – | –
[11] | – | 124 | – | – | 78 | 40.5
[12] | – | 116 | – | – | 96.1 | 70.6
[13] | 102 | – | 111 | 83.5 | – | –
[14] | – | 96 | – | – | 55 | 34
[15] | – | 98.9 | – | – | 93.8 | 52

COC1=CC(c2cc3ccccc3[nH]2)=N/C1=C\c1[nH]c(C)cc1C [Obatoclax]
normalised viability [%]
Conditions | 3 nM | 10 nM | 30 nM | 100 nM | 1000 nM | 10000 nM
[1] | – | 92.6 | – | – | 36.1 | 33.4
[2] | – | 75.5 | – | – | 9.72 | 8.54
[3] | 84.7 | – | 87.9 | 87.2 | – | –
[4] | 107 | – | 101 | 101 | – | –
[5] | 81.2 | – | 77.7 | 79.5 | – | –
[6] | 86.3 | – | 73.7 | 88.2 | – | –
[7] | – | 69 | – | – | 47.1 | 33.1
[8] | – | 95.4 | – | – | 64 | 44.9
[9] | – | 63 | – | – | 21.4 | 20
[10] | 85.3 | – | 94.9 | 68.8 | – | –
[11] | – | 96.7 | – | – | 27.1 | 22.1
[12] | – | 76.7 | – | – | 38.2 | 21.5
[13] | 101 | – | 77.9 | 74.3 | – | –
[14] | – | 72.7 | – | – | 54.4 | 25.6
[15] | – | 80.2 | – | – | 27.1 | 21.2
